# ChEMBL document CHEMBL4706685 (J Med Chem, 2021)
# Experiments:
# [1] = Lipophilicity, logP of compound by HPLC analysis; type: physicochemical
# CYP1A2 = assay: Induction of CYP1A2 mRNA expression in human hepatocytes up to 30 uM relative to positive control; type: ADME, cell-based, Hepatocyte; conditions: read-out: Activity
# [2] = Drug excretion in female Sprague-Dawley rat urine/feces assessed as drug recovery at […], po administered as single dose using [14C]-EC5026 measured through 168 hrs postdose; conditions: in vivo
# CYP3A4 = assay: Induction of CYP3A4 mRNA expression in human hepatocytes up to 30 uM relative to positive control; type: ADME, cell-based, Hepatocyte; conditions: read-out: Activity
# [3] = Drug excretion in male Sprague-Dawley rat urine/feces assessed as drug recovery at 3 mg/kg, po administered as single dose using [14C]-EC5026 measured through 168 hrs postdose; conditions: in vivo
# [4] = Terminal half life in human at 8 to 24 mg; type: ADME; conditions: dose 8-24 mg, read-out: beta t1/2 (converted)
# CYP2B6 = assay: Induction of CYP2B6 mRNA expression in human hepatocytes up to 30 uM relative to positive control; type: ADME, cell-based, Hepatocyte; conditions: read-out: Activity
# [5] = Solubility in 0.1M sodium phosphate buffer at pH 7.4; type: physicochemical
logP ([1]; read-out: logP),Emax (CYP1A2),Drug recovery [2],Emax (CYP3A4),Drug recovery [3],half-life [4],Emax (CYP2B6),logP [1],solubility [5],Compound
4.2,–,–,–,–,–,–,–,–,O=C(Nc1ccc(OC(F)(F)F)c(F)c1)NC1CCN(C(=O)C2CC2)CC1
6,< 20%,96.5%,< 20%,96.5%,42 h,< 20%,–,–,CC[C@H](C)C(=O)N1CCC(NC(=O)Nc2ccc(OC(F)(F)F)c(F)c2)CC1
–,–,–,–,–,–,–,3.2,404.41 µg/mL,CC[C@H](C)C(=O)N1CCC(CC(=O)Nc2ccc(OC(F)(F)F)c(F)c2)CC1
